Experimental data from patent EP0904070B1, “THE USE OF BUCKMINSTERFULLERENE FOR TREATMENT OF NEUROTOXIC INJURY” (F. HOFFMANN-LA ROCHE AG, priority 1996, dated 1997).

Key:
[1] = system: FALS mice (Gurney GI strain); test: Survival in a transgenic model of amyotrophic lateral sclerosis; format: in vivo; conditions: 15 mg/kg/day, intraperitoneal mini-osmotic pumps from 10 weeks of age
Protocol: The G1 line, with 18 copies and 4 times the SOD activity of wildtype animals, develops motor neuron death by 3-4 months of age, with hindlimb weakness, impaired grooming, and thinning along their flanks. Affected mice were dead before 5 months of age (Gurney et al., 1994).
C60(C(COOH)2)3 was used to treat FALS mice (Gurney GI strain) to determine its ability to treat FALS. At 10 weeks of age, Alzet mino-osmotic pumps (28 day, 6 (l/day, 15 mg/kg/day) containing C60(C(COOH)2)3 (the mixed isomers, which consist of >90% O-3a) or saline were implanted intraperitoneally. The pumps were replaced at 14 weeks of age. Videotaped assessments of open field walking were performed and scored using the Bresnahan scale for spinal cord injury (Basso et al., 1995). As reported by Gurney and colleagues, these animals develop motor symptoms by approximately 90 days of age, and are moribund between 125 and 145 days of age.
The 8 day increase in survival reached statistical significance (p=0.041), by t-test. There was no difference in survival for FALS mice who received no pumps (123 days, n=4) or those treated with saline-filled pumps (125 days, n=6).

cortical neurons [2] = test: AMPA excitotoxic neuronal injury in neuron-astrocyte co-cultures (LDH efflux); format: cell-based, Mouse
Protocol: (§1) Mouse embryos (gestational day 15) are removed from pregnant anesthetized Swiss-Webster mice, and the neocortex is dissected away from other brain structures. After brief incubation in trypsin, the cells are dissociated by trituration, and the cell suspension is then diluted into plating medium and plated onto previously-prepared 24-well Plastek culture plates coated with poly-D-lysine/laminin (for neuronal cultures) or onto an existing bed of astrocytes (for co-cultures). After 1-2 days in vitro, a partial exchange with glial conditioned medium is made for "pure" neuronal cultures, and cytosine arabinoside (3µM) is added immediately after feeding to inhibit glial proliferation. Mixed cultures are fed biweekly with growth medium until 11-12 days in vitro, when they are fed with serum-free MS containing 2 mM L-glutamine. Unless otherwise stated, cells were used at 14-16 days in vitro.

[3] = Solubility in water / aqueous solution; format: physicochemical
From the text: Solutions of carboxyfullerene were translucent brown.

wild-type animals = test: Tolerability in wild-type animals treated two months; format: in vivo, mice; conditions: 15 mg/kg/day
cortical neurons [4] = test: NMDA excitotoxic neuronal injury in neuron-astrocyte co-cultures (LDH efflux); format: cell-based, Mouse; conditions: for reduction of neuronal death from NMDA: 300(M, co-applied with NMDA for 10 minutes, assessed at 24 hours), all experiments performed to date
Protocol: as §1, with “Mouse neocortical cultures were prepared as neuron-astrocyte co-cultures (approximately 50% astrocytes) (Rose et al., 1992) or as neuronal cultures (< 2% astrocytes). Mouse” for “Mouse”
Carboxyfullerene (3-300 (M) was co-applied to neuron-astrocyte co-cultures described above with NMDA for assessment of neuroprotection. Brief exposure to NMDA in the presence of the carboxyfullerene was carried out by triple exchange of the medium with HBBSS, followed by addition of 50µM- 500µM NMDA plus carboxyfullerene for 10 minutes. The NMDA and carboxyfullerene were removed by quadruple exchange of the medium with MS, and the cultures were placed in the humidified, CO2 (5%), 37°C incubator for 24 hours, when the extent of injury was assessed.
Neuronal death was assessed at 24 hours after NMDA or AMPA administration by phase contrast microscopy at 200-400x, and by measurement of lactate dehydrogenase (LDH) efflux from dying cells into the bathing medium (Koh and Choi, 1987). Quantitation of cell death was confirmed in some experiments by trypan blue or propidium iodide staining and cell counting.

[5] = system: Cortical neurons in glia-deficient culture; test: Serum deprivation apoptotic neuronal death in glia-deficient cultures (trypan blue cell counting); format: cell-based, Mouse; conditions: 10 (M, 48 hours after onset of serum-deprivation); 10 µM
Protocol: as §1, with “Mouse neocortical cultures were prepared as neuron-astrocyte co-cultures (approximately 50% astrocytes) (Rose et al., 1992) or as neuronal cultures (< 2% astrocytes). Mouse” for “Mouse”, “vitro. […]” for “vitro.”
Additionally, neuronal cell death was determined at 48 hours removal of serum by counting cells that are no longer able to exclude trypan blue.

NMDA receptors = test: 45Ca2+ tracer experiments, NMDA-stimulated calcium accumulation in cultured neurons; format: cell-based, Mouse; conditions: co-application of up to 300 (M with NMDA (300 (M), 10 minutes))
Protocol: To verify that protection against NMDA-induced neuronal cell injury was not due to a reduction in NMDA-induced calcium influx, ^45Ca^2+ tracer studies were performed. Cultures were washed twice with HBBSS and then exposed to NMDA (300 (M), either alone or with C60(C(COOH)2)3, in HBBSS containing tracer ^45Ca^2+ (0.5 (Ci/culture well; NEN, Boston, MA). The exposure was terminated after 10 minutes by exchanging the medium four times with unlabelled HBBSS, followed by lysis of the cells by addition of 0.2% sodium dodecyl sulfate (SDS). The cells were left in SDS for 2 hours, and the lysate was then transferred to scintillation vials. An additional wash of each culture well with SDS was added to the vial, which then underwent (-counting.

[6] = Spin-trap (DMPO) electron paramagnetic resonance spectroscopy, superoxide radical scavenging (xanthine + xanthine oxidase); conditions: compound co-incubated with xanthine oxidase and xanthine
hepatocytes = test: Protection from injury in hepatocytes; format: cell-based; conditions: compared with R-3b
[7] = Spin-trap (DMPO) electron paramagnetic resonance spectroscopy, hydroxyl radical scavenging; conditions: for scavenging of •OH by EPR: •OH from 100 µM H2O2 in Fe2+ (Fenton reaction), 100 mM DMPO, 4 µM compound
Protocol: Hydroxyl radical (spectra on left): ^•OH in the presence of DMPO alone (top), in the presence of 4 µM O-3a (middle), or in the presence of 4 µM R-3b (bottom). Superoxide radical (right): O2^•- in DMPO alone (top), in the presence of 400 µM O-3a (middle), in the presence of 400 µM R-3b (bottom). The arrow designates a spurious signal due to an unknown radical in the cavity. The sample was analyzed in a quartz flat cell (60 x 10 x 0.25 mm) in a Bruker 200, X-band EPR spectrometer. Settings were power = 1.6 mW, modulation = 1 G, field modulation = 100 Hz, R.G. = 3.2x10^5.

[8] = Spin-label/EPR membrane experiments (5- or 16-doxyl ketostearic acid in brain lipids); format: physicochemical, mouse; conditions: for Lipid/aqueous partition factor: f = hL/hA, measured for 16-doxylstearic acid
Protocol: Values are mean ± SEM, n=8-12 per conditions. * = p<0.05 vs. untreated injury condition, using ANOVA followed by Student-Newman-Keuls test for multiple comparisons. ** = p<0.05 R-3b different than O-3a. […] The spin labels were added to lipids extracted from adult mouse brain at a ratio of 1:100. EPR settings were the same as those listed in the legend for Figure 9. Both isomers produce a shift in the order parameter (S) of the 5-doxyl group, but O-3a produced a greater change in S (Table 1).

[9] = system: endothelial cell cultures; test: Protection from injury in endothelial cell cultures; format: cell-based; conditions: compared with R-3b

Substance: C60(C(COOH)2)3
- onset of symptoms [1]: delay in onset of symptoms
- delay in death ([1]; versus saline, p = 0.041, mixed isomers, >90% O-3a): 8 ± 2.2 days
- reduction of neuronal cell death from AMPA (cortical neurons [2]; 100 (M, 24 hours exposure, MK-801 (10 (M) included, data from 4 experiments pooled)), 100 µM): > 80%
- soluble in water [3]: at least 50 mM
- adverse health or behavioral effects (wild-type animals; n=6): no adverse health or behavioral effects
- weights versus untreated littermates (wild-type animals; within genders): similar
- reduction of neuronal death from NMDA (cortical neurons [4]): nearly complete protection
- reduction of neuronal death from NMDA (cortical neurons [4]; 300 µM): at least 60%
- reduction in neuronal cell death (NMDA) (cortical neurons [4]; pooled data from three experiments (Fig. 5)): 75%
- reduction in neuronal death (serum deprivation) [5]: 50%
- 45Ca2+ accumulation (NMDA receptors): not affected

Substance: C60(C(COOH)2)3 [Compound O-3a]
- superoxide radical (spin adduct DMPO-OOH) EPR signal [6]: eliminated the superoxide radical signal
- protection from injury in hepatocytes (hepatocytes): enhanced protection over R-3b
- protection against AMPA-induced neuronal death, compared with R-3b (cortical neurons [2]; Fig. 10 B, n=8-12 per condition): substantially better protection
- protection from injury produced by application of NMDA, compared with R-3b (cortical neurons [4]; Fig. 10 A, n=8-12 per condition): slightly better protection
- hydroxyl radical (spin adduct DMPO-OH) EPR signal ([7]; 150 (M compound included with H2O2, 15 minute period)): elimination of this OH signal
- scavenging of •OH by EPR [7]: extremely potent scavengers
- Lipid/aqueous partition factor [8]: 1.0 ± 0.2
- entry into the lipid bilayer ([8]; inferred from order parameter and 16-doxyl signal): to a greater extent than R-3b
- protection from injury in endothelial cell cultures [9]: enhanced protection over R-3b

Substance: C60(C(COOH)2)3 [Compound R-3b]
- superoxide radical (spin adduct DMPO-OOH) EPR signal [6]: eliminated the superoxide radical signal
- neuroprotective activity (in words) (cortical neurons [4]; excitotoxic injury by NMDA and AMPA, insult not stated separately): effective neuroprotectant
- scavenging of •OH by EPR [7]: extremely potent scavengers
- Lipid/aqueous partition factor [8]: 0.6
